{"source": "patent US20180201647A1", "about": "“Peptoid” (The University of Durham, priority 2015, published 2018)", "format_in_all_cases": "cell-based", "key": {"[1]": {"system": "Trypanosoma brucei rhodesiense STIB900", "conditions": "for IC50: 70 h; for active against T. brucei rhodesiense: statement in words", "method": "This stock was isolated in 1982 from a human patient in Tanzania and after several mouse passages cloned and adapted to axenic culture conditions. Minimum Essential Medium (50 μl) supplemented with 25 mM HEPES, 1 g/l additional glucose, 1% MEM non-essential amino acids (100×), 0.2 mM 2-mercaptoethanol, 1 mM Na-pyruvate and 15% heat inactivated horse serum was added to each well of a 96-well microtiter plate. Serial drug dilutions of eleven 3-fold dilution steps covering a range from 100 to 0.002 μg/ml were prepared. Then 4×10^3 bloodstream forms of T. b. rhodesiense STIB 900 in 50 μl was added to each well and the plate incubated at 37° C. under a 5% CO2 atmosphere for 70 h. 10 μl Alamar Blue (resazurin, 12.5 mg in 100 ml double-distilled water) was then added to each well and incubation continued for a further 2-4 h. Then the plates were read with a Spectramax Gemini XS microplate fluorometer (Molecular Devices Cooperation, Sunnyvale, Calif., USA) using an excitation wave length of 536 nm and an emission wave length of 588 nm. The IC50 values were calculated by linear regression from the sigmoidal dose inhibition curves using SoftmaxPro software (Molecular Devices Cooperation, Sunnyvale, Calif., USA). Melarsoprol (Arsobal Sanofi-Aventis, received from WHO) is used as control."}, "[2]": {"system": "erythrocytic stages of P. falciparum", "conditions": "for active against P. falciparum: statement in words; for IC50: strain (NF54 or K1) not given", "method": "In vitro activity against erythrocytic stages of P. falciparum was determined using a 3H-hypoxanthine incorporation assay using the drug sensitive NF54 strain (Schipol airport) or the chloroquine and pyrimethamine resistant K1 strain that originate from Thailand and the standard drug chloroquine (Sigma C6628). Compounds were dissolved in DMSO at 10 mg/ml and added to parasite cultures incubated in RPMI 1640 medium without hypoxanthine, supplemented with HEPES (5.94 g/l), NaHCO3 (2.1 g/1), neomycin (100 U/ml), Albumax® (5 g/l) and washed human red cells A^+ at 2.5% haematocrit (0.3% parasitaemia). Serial drug dilutions of eleven 3-fold dilution steps covering a range from 100 to 0.002 μg/ml were prepared. The 96-well plates were incubated in a humidified atmosphere at 37° C.; 4% CO2, 3% O2, 93% N2. After 48 h 50 μl of 3H-hypoxanthine (=0.5 μCi) was added to each well of the plate. The plates were incubated for a further 24 h under the same conditions. The plates were then harvested with a Betaplate™ cell harvester (Wallac, Zurich, Switzerland), and the red blood cells transferred onto a glass fibre filter then washed with distilled water. The dried filters were inserted into a plastic foil with 10 ml of scintillation fluid, and counted in a Betaplate™ liquid scintillation counter (Wallac, Zurich, Switzerland). IC50 values were calculated from sigmoidal inhibition curves by linear regression using Microsoft Excel. Chloroquine and artemisinin are used as control."}, "[3]": {"system": "Escherichia coli K12 W3110", "method": "(§1) Species used in MIC assays included gram-negative Escherichia coli K12 W3110, Pseudomonas aeruginosa laboratory strain PAO2 and Serratia marcescens laboratory strain and gram-positive Staphylococcus aureus NCTC 6571 and Micrococcus luteus laboratory strain.\n(§2) Bacterial cultures were prepared by streaking the bacterial strains on to agar plates with an inoculation loop and incubating overnight at 37° C. A single colony was then selected and placed in 5 mL of Iso-Sensitest broth using an inoculation loop and incubated at 37° C. with shaking overnight.\n(§3) MIC values were attained according to the protocol described by J. M. Andrews et al. [J. M. Andrews, J. Antimicrob. Chemother., 2001, 48, 5-16] and were conducted in 96-well microtitre plates in triplicate. 10-50 μL of each overnight culture was inoculated into 1.2 mL of Iso-Sensitest broth and grown at 37° C. with shaking. […] The inoculum was diluted ten-fold with Iso-Sensitest broth before use (to ˜10^3 cfu/spot). Peptide solutions were initially dissolved in DMSO (5 mg mL^−1) and then diluted further with Iso-Sensitest broth to achieve a concentration range of 4 mgL^−1 to 512 mgL^−1 using 2-fold serial dilutions. Samples were vortexed between dilutions where necessary to aid dissolution. 50 μL of inoculum and 50 μL of peptide solution were added to each test well to achieve a final concentration range of 2 mgL^−1 to 256 mgL^−1. Separate dilutions of ampicillin and DMSO were made up in a similar manner to act as a positive antibacterial control and a +DMSO control, respectively. 50 μL of inoculum and 50 μL of Iso-Sensitest broth were used as a positive control and 100 μL of inoculum was used as a negative control. Positive and negatives controls were conducted multiple times in parallel per plate. […] Quantitative data were attained as A650nm values using a BioTek® Synergy™ H4 Hybrid Multi-Mode Microplate Reader."}, "[4]": {"system": "Serratia marcescens laboratory strain", "conditions": "16 h", "method": "as §1, §2, §3"}, "[5]": {"system": "Staphylococcus aureus NCTC 6571", "method": "as §1, §2, §3"}, "[6]": {"system": "Pseudomonas aeruginosa laboratory strain PAO2", "method": "as §1, §2, §3"}, "[7]": {"conditions": "second figure of cell, 37° C., 16 h, Iso-Sensitest broth"}, "[8]": {"conditions": "second figure of cell, 37° C., Iso-Sensitest broth"}}, "note": "Read-outs that look alike come from different tables or passages of the source. Where a SMILES comes first, the peptide text is derived from it. [ ]: non-standard residue; d: D form. Nspe = C[C@H](NCC(=O)O)c1ccccc1; NhArg = N=C(N)NCCCCNCC(=O)O; Nlys = NCCCCNCC(=O)O", "data": [{"smiles": "C[C@@H](c1ccccc1)N(CC(N)=O)C(=O)CN(C(=O)CN(CCCCNC(=N)N)C(=O)CN(C(=O)CN(C(=O)CN(CCCCNC(=N)N)C(=O)CN(C(=O)CN(C(=O)CN(CCCCN)C(=O)CN(C(=O)CN(C(=O)CNCCCCN)[C@@H](C)c1ccccc1)[C@@H](C)c1ccccc1)[C@@H](C)c1ccccc1)[C@@H](C)c1ccccc1)[C@@H](C)c1ccccc1)[C@@H](C)c1ccccc1)[C@@H](C)c1ccccc1", "note": "[Peptoid 1, (NLys-Nspe-Nspe)2(NhArg-Nspe-Nspe)2] (H-[Nlys][Nspe][Nspe][Nlys][Nspe][Nspe][NhArg][Nspe][Nspe][NhArg][Nspe][Nspe]-NH2; N-terminus assumed)", "values": [{"measurement": "IC50", "setting": "[1]", "result": 6.73, "unit": "µM"}, {"measurement": "active against T. brucei rhodesiense", "setting": "[1]", "result": "active"}, {"measurement": "active against P. falciparum", "setting": "[2]", "result": "active"}, {"measurement": "IC50", "setting": "[2]", "result": 1.5, "unit": "µM"}, {"measurement": "MIC E. coli", "setting": "[3]; K12, 16 h", "result": 17, "unit": "µM"}, {"measurement": "MIC E. coli", "setting": "[3]; [7]", "result": 32, "unit": "mgL^−1"}, {"measurement": "MIC S. marcescens", "setting": "[4]; laboratory strain", "result": 134, "unit": "µM"}, {"measurement": "MIC S. marcescens", "setting": "[4]; [8]", "result": 256, "unit": "mgL^−1"}, {"measurement": "MIC S. aureus", "setting": "[5]; NCTC 6571, 16 h", "result": 17, "unit": "µM"}, {"measurement": "MIC S. aureus", "setting": "[5]; [7]", "result": 32, "unit": "mgL^−1"}, {"measurement": "MIC P. aeruginosa", "setting": "[6]; laboratory strain PAO2, 16 h", "result": 34, "unit": "µM"}, {"measurement": "MIC P. aeruginosa", "setting": "[6]; [7]", "result": 64, "unit": "mgL^−1"}]}, {"smiles": "C[C@@H](c1ccccc1)N(CC(N)=O)C(=O)CN(C(=O)CN(CCCCN)C(=O)CN(C(=O)CN(C(=O)CN(CCCCNC(=N)N)C(=O)CN(C(=O)CN(C(=O)CN(CCCCN)C(=O)CN(C(=O)CN(C(=O)CNCCCCNC(=N)N)[C@@H](C)c1ccccc1)[C@@H](C)c1ccccc1)[C@@H](C)c1ccccc1)[C@@H](C)c1ccccc1)[C@@H](C)c1ccccc1)[C@@H](C)c1ccccc1)[C@@H](C)c1ccccc1", "note": "[Peptoid 4, [(NhArg-Nspe-Nspe)(NLys-Nspe-Nspe)]2] (H-[NhArg][Nspe][Nspe][Nlys][Nspe][Nspe][NhArg][Nspe][Nspe][Nlys][Nspe][Nspe]-NH2; N-terminus assumed)", "values": [{"measurement": "IC50", "setting": "[1]", "result": 16.7, "unit": "µM"}, {"measurement": "active against T. brucei rhodesiense", "setting": "[1]", "result": "active"}, {"measurement": "active against P. falciparum", "setting": "[2]", "result": "active"}, {"measurement": "IC50", "setting": "[2]", "result": 2.72, "unit": "µM"}, {"measurement": "MIC E. coli", "setting": "[3]; K12, 16 h", "result": 17, "unit": "µM"}, {"measurement": "MIC E. coli", "setting": "[3]; [7]", "result": 32, "unit": "mgL^−1"}, {"measurement": "MIC S. marcescens", "setting": "[4]; laboratory strain", "result": "> 134", "unit": "µM"}, {"measurement": "MIC S. marcescens", "setting": "[4]; [8]", "result": "> 256", "unit": "mgL^−1"}, {"measurement": "MIC S. aureus", "setting": "[5]; NCTC 6571, 16 h", "result": 17, "unit": "µM"}, {"measurement": "MIC S. aureus", "setting": "[5]; [7]", "result": 32, "unit": "mgL^−1"}, {"measurement": "MIC P. aeruginosa", "setting": "[6]; laboratory strain PAO2, 16 h", "result": 67, "unit": "µM"}, {"measurement": "MIC P. aeruginosa", "setting": "[6]; [7]", "result": 128, "unit": "mgL^−1"}]}]}
